Experimental data: US10174000B2, “Bicyclic-fused heteroaryl or aryl compounds as IRAK4 modulators” (PFIZER INC., priority 2015, dated 2019)

Legend:
[1] = target: inactive, unphosphorylated (0-phos), human IRAK4 FL (Full Length) (Homo sapiens (Human), UniProt Q9NWZ3); test: IRAK4 Enzymatic DELFIA Assay, Protocol B; format: biochemical; details: 600 μM ATP (KM), full-length recombinant human IRAK4
Experimental: IRAK4 Enzymatic DELFIA Assay, Protocol B.
The test compound is solubilized in DMSO to a stock concentration of 30 mM. The dose response plates were prepared with a 4 mM primary compound concentration, serialized in DMSO and spotted (1 μL) into 384-well polypropylene plates as before.
20 uL of 20 mM HEPES pH=7.5, 5 mM MgCl2, 0.0025% Brij-35, 600 μM ATP, and 100 nM ERM-biotinylated peptide (AGAGRDKYKTLRQIR) was added to start the reaction, which was run for 90 minutes at RT and stopped by the addition of 20 μL 0.3M EDTA.
(§1) 50 μL of the reaction mixture was transferred to a streptavidin-coated detection plate (DELFIA streptavidin coated plates, 384-well, white plates, Perkin-Elmer Life Sciences) and incubated for 30 minutes at RT. The plates were washed 4× with 75 μL per well of PBS containing 0.05% Tween-20. Plates were then incubated with 50 μL per well of antibody cocktail of Anti-pERM antibody at 0.125 μg/mL (Cell Signaling Technology), plus Anti-Rabbit IgG EuN1 at 0.25 μg/ml (Perkin-Elmer Life Sciences) in a solution of 10 mM MOPS pH=7.5, 150 mM NaCl, 0.05% Tween-20, 0.02% NaN3, 1% BSA, 0.1% Gelatin for 45 minutes. The plates were then washed as before. 50 μL per well of DELFIA Enhancement Solution (Perkin-Elmer Life Sciences) was added to the plate and incubated for 15 minutes at RT prior to being read on an Envision Model 2104 multi-label reader using a 340 nm excitation wavelength and a […] emission wavelength for detection.

[2] = target: human IRAK4 FL (Full Length), phosphorylated (Homo sapiens (Human), UniProt Q9NWZ3); test: IRAK4 Enzymatic DELFIA Assay, Protocol A; format: biochemical; details: 600 μM ATP (KM); full-length phosphorylated recombinant human IRAK4
Experimental: IRAK4 Enzymatic DELFIA Assay, Protocol A.
This is an in vitro assay to measure IRAK4 enzymatic activity utilizing the DELFIA (Dissociation-Enhanced Lanthanide Fluorescent Immunoassay, Perkin-Elmer) platform, with the human IRAK4 FL (Full Length) construct to characterize IRAK4 inhibitor and control compounds at 600 μM ATP (KM). The final amount of enzyme in the assay is 0.1 nM IRAK4 FL, final concentration of substrate is 50 nM, and final concentration of DMSO is 2.5%.
The test compound was solubilized in DMSO to a stock concentration of 30 mM. The dose response plates were prepared with a 4 mM primary compound concentration (40-fold multiple of the final in-assay concentration), and diluted in DMSO in a four-fold series for a total of 11 data points. 1 μL of the compound dilution plate is spotted into ultra-clear polypropylene, 384-well, U-bottom plates (Corning Life Sciences).
To begin the assay, 19 μL of reaction mixture containing 20 mM HEPES pH=7.5, 5 mM MgCl2, 0.0025% Brij-35, 600 μM ATP, 0.21 nM Full-length phosphorylated recombinant human IRAK4 (GenBank ID AF445802) are aliquoted into the polypropylene, 384-well, U-bottom plates containing 1 μL of test compound, mixed briefly and incubated for 20 minutes at room temperature (RT). Then, 20 μL of 20 mM HEPES pH=7.5, 5 mM MgCl2, 0.0025% Brij-35, 600 μM ATP, and 100 nM ERM-biotinylated peptide (AGAGRDKYKTLRQIR) is added to start the reaction. The reaction is incubated for 60 minutes at RT and stopped by the addition of 20 μL 0.3M EDTA.
as §1

Chain of human IRAK4 FL (Full Length), phosphorylated (Q9NWZ3 whole entry): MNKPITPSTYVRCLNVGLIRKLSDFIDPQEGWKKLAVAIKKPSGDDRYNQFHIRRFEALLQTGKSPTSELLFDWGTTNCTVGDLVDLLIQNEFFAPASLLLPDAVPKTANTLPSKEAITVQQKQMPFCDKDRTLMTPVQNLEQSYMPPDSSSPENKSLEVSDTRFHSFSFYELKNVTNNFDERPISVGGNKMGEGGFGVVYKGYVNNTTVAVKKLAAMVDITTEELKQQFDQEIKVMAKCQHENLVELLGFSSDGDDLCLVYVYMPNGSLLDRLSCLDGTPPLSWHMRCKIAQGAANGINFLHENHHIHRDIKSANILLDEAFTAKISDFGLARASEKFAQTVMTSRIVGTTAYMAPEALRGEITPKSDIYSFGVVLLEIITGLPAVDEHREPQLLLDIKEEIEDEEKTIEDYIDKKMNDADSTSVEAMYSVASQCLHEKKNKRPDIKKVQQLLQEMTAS
Chain of inactive, unphosphorylated (0-phos), human IRAK4 FL (Full Length) (Q9NWZ3 whole entry): as above

SMILES	IC50 [1]	IC50 [2]
COc1cc2c(OC[C@@H]3NC(=O)[C@@H](F)C34CC4)nccc2cc1C(N)=O [Example 22, 1-(((4R,7S)-7-fluoro-6-oxo-5-azaspiro[2.4]heptan-4-yl)methoxy)-7-methoxyisoquinoline-6-carboxamide]	1700 nM	26000 nM
COc1cc2c(OC[C@@H]3NC(=O)[C@H](F)C34CC4)nccc2cc1C(N)=O [Example 23, 1-(((4R,7R)-7-fluoro-6-oxo-5-azaspiro[2.4]heptan-4-yl)methoxy)-7-methoxyisoquinoline-6-carboxamide]	110 nM	1450 nM
COc1cc2c(OC[C@H]3NC(=O)[C@@H](F)C34CC4)nccc2cc1C(N)=O [Example 24, 1-(((4S,7S)-7-fluoro-6-oxo-5-azaspiro[2.4]heptan-4-yl)methoxy)-7-methoxyisoquinoline-6-carboxamide]	0.8 nM	5.2 nM
CC[C@@H]1CC(=O)N[C@@H]1COc1cncc2cc(C(N)=O)c(OC)cc12 [Example 25, 4-(((2S,3R)-3-ethyl-5-oxopyrrolidin-2-yl)methoxy)-6-methoxyisoquinoline-7-carboxamide]	2.7 nM	47 nM
CC[C@@H]1[C@H](F)C(=O)N[C@@H]1COc1cncc2cc(C(N)=O)c(OC)cc12 [Example 26, 4-(((2S,3S,4S)-3-ethyl-4-fluoro-5-oxopyrrolidin-2-yl)methoxy)-6-methoxyisoquinoline-7-carboxamide]	0.3 nM	7.7 nM
CC[C@@H]1[C@H](F)C(=O)N[C@@H]1COc1cccc2cc(C(N)=O)c(OC)cc12 [Example 27, 5-(((2S,3S,4S)-3-ethyl-4-fluoro-5-oxopyrrolidin-2-yl)methoxy)-3-methoxy-2-naphthamide]	0.1 nM	0.8 nM
COc1cc2c(OC[C@]34C[C@H]3CC(=O)N4)nccc2cc1C(N)=O [Example 30, 7-methoxy-1-{[(1S,5S)-3-oxo-2-azabicyclo[3.1.0]hex-1-yl]methoxy}isoquinoline-6-carboxamide]	151 nM	4300 nM
COc1cc2c(OC[C@@]34C[C@@H]3CC(=O)N4)nccc2cc1C(N)=O [Example 31, 7-methoxy-1-{[(1R,5R)-3-oxo-2-azabicyclo[3.1.0]hex-1-yl]methoxy}isoquinoline-6-carboxamide]	1200 nM	> 100000 nM
CC[C@@H]1[C@H](F)C(=O)N[C@@H]1COc1nccc2nc(C(N)=O)c(OC)cc12 [Example 32, 5-{[(2S,3S,4S)-3-ethyl-4-fluoro-5-oxopyrrolidin-2-yl]methoxy}-3-methoxy-1,6-naphthyridine-2-carboxamide]	4.5 nM	27 nM
